# Measurements published in PMC7024217, “Study on Structure Activity Relationship of Natural Flavonoids against Thrombin by Molecular Docking Virtual Screening Combined with Activity Evaluation In Vitro” (Molecules, 2020).
# Where two headings read alike, the source gives them in different places.
# Molecular target: T1, bovine thrombin (Bos taurus, UniProt P00735)
# T1 construct: bovine thrombin and argatroban were purchased from Sigma-Aldrich; purchased Sigma-Aldrich (St. Louis, MO, USA)
# Test: Thrombin inhibitory activity assay (chromogenic substrate S-2238);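 further: microplate absorbance read-out, thrombin preincubated with test compound 5 min at 37 °C in PBS pH 7.2-7.4, inhibition relative to blank without compound after subtracting compound-only background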
# Type: biochemical
# Conditions: for inhibitor class / Group (inhibitor class): class by anti-thrombin IC50
# [1] = Table 1, anti-thrombin, substrate S-2238 4 mg/mL, read-out: IC50
# [2] = Table 2, anti-thrombin, read-out: IC50 ±SD
# [3] = thrombin inhibition, substrate 4 mg/mL, read-out: IC50
IC50 [1] [µM],Group (inhibitor class) (Table 2),Molecule,inhibitor class,other results
159,Moderate inhibitor,O=c1c(O)c(-c2ccccc2)oc2cc(O)cc(O)c12 [Galangin],moderate inhibitors (compounds with IC50 value ranging from 100 μM to 200 μM were considered as moderate inhibitors),IC50 [2]: 159 µM
444 ± 59,–,C[C@@H]1O[C@@H](O[C@H]2[C@H](Oc3cc(O)c4c(c3)O[C@H](c3ccc(O)cc3)CC4=O)O[C@H](CO)[C@@H](O)[C@@H]2O)[C@H](O)[C@H](O)[C@H]1O [Naringin],weak thrombin inhibitors (classified as weak thrombin inhibitors since their IC50 values ranged from 200 μM to 500 μM),–
99.7 ± 5.5,Strong inhibitor,COc1cc(O)c2c(=O)cc(-c3ccc(O)c(O)c3)oc2c1 [Hydroxygenkwanin],–,IC50 [2]: 99.7 ± 5.5 µM
175 ± 18,Moderate inhibitor,O=c1c(O)c(-c2ccc(O)c(O)c2)oc2cc(O)ccc12 [Fisetin],moderate inhibitors (compounds with IC50 value ranging from 100 μM to 200 μM were considered as moderate inhibitors),–
> 500,–,O=C1c2c(O)cc(O)cc2O[C@H](c2ccc(O)c(O)c2)[C@H]1O [Dihydroquercetin],–,–
> 500,–,C[C@@H]1O[C@@H](OC[C@H]2O[C@@H](Oc3cc(O)c4c(c3)O[C@H](c3ccc(O)cc3)CC4=O)[C@H](O)[C@@H](O)[C@@H]2O)[C@H](O)[C@H](O)[C@H]1O [Narirutin],–,–
> 500,–,COc1ccc([C@@H]2CC(=O)c3c(O)cc(O[C@@H]4O[C@H](CO)[C@@H](O)[C@H](O)[C@H]4O[C@@H]4O[C@@H](C)[C@H](O)[C@@H](O)[C@H]4O)cc3O2)cc1O [Neohesperidin],–,–
> 500,–,Oc1cc(O)c2c(c1)OC(c1ccc(O)c(O)c1)C(O)C2c1c(O)cc(O)c2c1OC(c1ccc(O)c(O)c1)C(O)C2 (stereo not drawn) [Proanthocyanidin B1],–,–
–,Strong inhibitor,O=c1cc(-c2ccc(O)cc2)oc2cc(O)cc(O)c12 [Apigenin],–,–
> 500,–,O=C1C[C@@H](c2ccc(O)cc2)Oc2cc(O)cc(O)c21 [Naringenin],–,–
107 ± 2,Moderate inhibitor,O=c1c(O)c(-c2ccc(O)cc2)oc2cc(O)cc(O)c12 [Kaempferol],moderate inhibitors (compounds with IC50 value ranging from 100 μM to 200 μM were considered as moderate inhibitors),IC50 [2]: 107 ± 2 µM
146 ± 10,Moderate inhibitor,O=c1cc(-c2ccc(O)c(O)c2)oc2cc(O)cc(O)c12 [Luteolin],moderate inhibitors (compounds with IC50 value ranging from 100 μM to 200 μM were considered as moderate inhibitors),–
249 ± 31,–,O=c1cc(-c2ccccc2)oc2cc(O)c(O)c(O)c12 [Baicalein],weak thrombin inhibitors (classified as weak thrombin inhibitors since their IC50 values ranged from 200 μM to 500 μM),–
> 500,–,C[C@@H]1O[C@@H](Oc2c(-c3ccc(O)c(O)c3)oc3cc(O)cc(O)c3c2=O)[C@H](O)[C@H](O)[C@H]1O [Quercitrin],–,–
88.6 ± 8.2,Strong inhibitor,O=C(O)[C@H]1O[C@@H](Oc2cc3oc(-c4ccccc4)cc(=O)c3c(O)c2O)[C@H](O)[C@@H](O)[C@@H]1O [Baicalin],–,IC50 [2]: 88.6 ± 8.2 µM
70.8 ± 2.7,Strong inhibitor,O=c1cc(-c2ccc(O)cc2)oc2cc(O)c(O)c(O)c12 [Scutellarein],–,IC50 [2]: 70.8 ± 2.7 µM; IC50 [3]: < 100 µM
> 500,–,COc1c(O[C@@H]2O[C@H](C(=O)O)[C@@H](O)[C@H](O)[C@H]2O)cc(O)c2c(=O)cc(-c3ccccc3)oc12 [Wogonoside],–,–
133 ± 4,Moderate inhibitor,O=c1c(O)c(-c2ccc(O)cc2)oc2c(O)c(O)cc(O)c12 [Herbacetin],moderate inhibitors (compounds with IC50 value ranging from 100 μM to 200 μM were considered as moderate inhibitors),IC50 [2]: 133 ± 4 µM
–,Moderate inhibitor,COc1ccc(-c2cc(=O)c3c(O)cc(O)cc3o2)cc1O [Diosmetin],moderate inhibitors (compounds with IC50 value ranging from 100 μM to 200 μM were considered as moderate inhibitors),–
274 ± 23,–,C[C@@H]1O[C@@H](OC[C@H]2O[C@@H](Oc3c(-c4ccc(O)c(O)c4)oc4cc(O)cc(O)c4c3=O)[C@H](O)[C@@H](O)[C@@H]2O)[C@H](O)[C@H](O)[C@H]1O [Rutin],weak thrombin inhibitors (classified as weak thrombin inhibitors since their IC50 values ranged from 200 μM to 500 μM),–
> 500,–,COc1ccc([C@@H]2CC(=O)c3c(O)cc(O)cc3O2)cc1O [Hesperetin],–,–
> 500,–,COc1cc(-c2oc3cc(O)cc(O)c3c(=O)c2OC2OC(CO)C(O)C(O)C2OC2OC(C)C(O)C(O)C2O)ccc1O (stereo not drawn) [Isorhamnetin-3-O-neohesperidoside],–,–

# The remaining lines, values behind:
Molecule,IC50 [1] [µM],Group (inhibitor class) (Table 2),inhibitor class,other results
O=c1c(O)c(-c2ccc(O)cc2O)oc2cc(O)cc(O)c12 [Morin],237 ± 26,–,weak thrombin inhibitors (classified as weak thrombin inhibitors since their IC50 values ranged from 200 μM to 500 μM),–
COc1cc(-c2oc3cc(O)cc(O)c3c(=O)c2O)ccc1O [Isorhamnetin],–,Strong inhibitor,–,–
"Oc1cc(O)c2c(c1)OC(c1cc(O)c(O)c(O)c1)C(O)C2 (single isomer, unassigned; (-)) [(-)-epigallocatechin]",–,–,–,IC50 (IC50): > 500 µM
O=c1cc(-c2ccc(O)c(O)c2)oc2cc(O[C@@H]3O[C@H](CO)[C@@H](O)[C@H](O)[C@H]3O)cc(O)c12 [Luteoloside],155 ± 18,Moderate inhibitor,moderate inhibitors (compounds with IC50 value ranging from 100 μM to 200 μM were considered as moderate inhibitors),IC50 [2]: 155 ± 18 µM
"O=C(OC1Cc2c(O)cc(O)cc2OC1c1ccc(O)c(O)c1)c1cc(O)c(O)c(O)c1 (single isomer, unassigned; (-)) [(-)-Epicatechin gallate]",> 500,–,–,–
O=c1c(O[C@@H]2O[C@H](CO)[C@@H](O)[C@H](O)[C@H]2O)c(-c2ccc(O)c(O)c2)oc2cc(O)cc(O)c12 [Isoquercitrin],> 500,–,–,–
O=c1c(OC2OC(CO)C(O)C(O)C2O)c(-c2ccc(O)cc2)oc2cc(O)cc(O)c12 (stereo not drawn) [Astragaline],217 ± 5,–,weak thrombin inhibitors (classified as weak thrombin inhibitors since their IC50 values ranged from 200 μM to 500 μM),–
COc1ccc([C@@H]2CC(=O)c3c(O)cc(O[C@@H]4O[C@H](CO[C@@H]5O[C@@H](C)[C@H](O)[C@@H](O)[C@H]5O)[C@@H](O)[C@H](O)[C@H]4O)cc3O2)cc1O [Hesperidin],> 500,–,–,–
O=C1c2c(O)cc(O)cc2O[C@H](c2cc(O)c(O)c(O)c2)[C@H]1O [Dihydromyricetin],> 500,–,–,–
COc1cc(O)c2c(=O)cc(-c3ccc(O)cc3)oc2c1 [Genkwanin],212 ± 30,–,weak thrombin inhibitors (classified as weak thrombin inhibitors since their IC50 values ranged from 200 μM to 500 μM),IC50 [3]: 211 µM
O=c1c(O)c(-c2ccc(O)cc2)oc2cc(O[C@@H]3O[C@H](CO)[C@@H](O)[C@H](O)[C@H]3O)cc(O)c12 [Kaempferol-7-O-β-D-glucopyranoside],> 500,–,–,–
COc1cc(-c2oc3cc(O)cc(O)c3c(=O)c2O[C@@H]2O[C@H](CO[C@@H]3O[C@@H](C)[C@H](O)[C@@H](O)[C@H]3O)[C@@H](O)[C@H](O)[C@H]2O[C@@H]2O[C@@H](C)[C@H](O)[C@@H](O)[C@H]2O)ccc1O [Typhaneoside],> 500,–,–,–
O=c1c(O)c(-c2ccc(O)c(O)c2)oc2cc(O)cc(O)c12 [Quercetin],–,–,weak thrombin inhibitors (classified as weak thrombin inhibitors since their IC50 values ranged from 200 μM to 500 μM),–
Myricitrin,–,Strong inhibitor,–,–
COc1c(O)cc2oc(-c3ccc(O)cc3)cc(=O)c2c1O [Hispidulin],126 ± 6,Moderate inhibitor,moderate inhibitors (compounds with IC50 value ranging from 100 μM to 200 μM were considered as moderate inhibitors),IC50 [2]: 126 ± 6 µM
Oc1cc(O)c2c(c1)O[C@H](c1ccc(O)c(O)c1)[C@H](O)C2 [Epicatechin],> 500,–,–,–
